Source: patent publication US9598387B2 (Southern Research Institute, priority 2012, dated 2017)

Experiments:
[1] = molecular target: human D3 dopamine receptor (Homo sapiens (Human), UniProt P35462); experiment: Radioligand binding (125I-IABN competition), D3; settings: for Ki: 125I-IABN competition, HEK cell membranes expressing human D3; for D2/D3 (D3 selectivity ratio, D2 Ki/D3 Ki): calculated D2 Ki/D3 Ki
Experimental: (§1) The affinities of the target compounds were determined using radioligand binding experiments. […] Competition curves were modeled for a single site. Data from competition dose-response curves were analyzed using Tablecurve program (Jandel). IC50 values were converted to equilibrium dissociation constants (Ki values) using the Cheng and Prusoff correction.

[2] = molecular target: human D2-long dopamine receptor (Homo sapiens (Human), UniProt P14416); experiment: Radioligand binding (125I-IABN competition), D2; settings: HEK cell membranes expressing human D2-long
Experimental: as §1

human D2-long dopamine receptor, sequence (P14416 whole entry): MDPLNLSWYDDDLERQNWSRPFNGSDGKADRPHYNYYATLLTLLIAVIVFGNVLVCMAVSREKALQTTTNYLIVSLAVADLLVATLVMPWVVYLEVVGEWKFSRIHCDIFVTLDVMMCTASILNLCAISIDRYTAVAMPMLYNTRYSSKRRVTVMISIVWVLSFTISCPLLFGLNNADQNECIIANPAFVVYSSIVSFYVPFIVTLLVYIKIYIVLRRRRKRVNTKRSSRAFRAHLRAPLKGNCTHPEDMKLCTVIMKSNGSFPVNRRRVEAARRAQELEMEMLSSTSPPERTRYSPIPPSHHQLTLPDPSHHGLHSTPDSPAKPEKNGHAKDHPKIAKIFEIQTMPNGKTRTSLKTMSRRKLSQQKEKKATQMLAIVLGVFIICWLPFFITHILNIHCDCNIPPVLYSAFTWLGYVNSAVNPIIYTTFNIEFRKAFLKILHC
human D3 dopamine receptor, sequence (P35462 whole entry): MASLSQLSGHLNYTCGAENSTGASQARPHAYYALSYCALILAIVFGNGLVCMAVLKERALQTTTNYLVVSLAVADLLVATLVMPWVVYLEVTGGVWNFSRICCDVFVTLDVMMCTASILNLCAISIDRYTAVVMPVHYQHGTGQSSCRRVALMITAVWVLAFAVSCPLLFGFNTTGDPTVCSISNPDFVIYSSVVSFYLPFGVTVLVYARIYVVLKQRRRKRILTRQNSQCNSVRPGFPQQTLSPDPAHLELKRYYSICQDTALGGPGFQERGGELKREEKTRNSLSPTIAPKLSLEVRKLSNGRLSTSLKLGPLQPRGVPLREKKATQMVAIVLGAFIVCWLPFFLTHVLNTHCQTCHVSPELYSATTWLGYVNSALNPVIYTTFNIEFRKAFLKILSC

Ki [1]	D2/D3 (D3 selectivity ratio, D2 Ki/D3 Ki) [1]	Ki [2]	Structure (SMILES)
19.4 ± 4.8 nM	22	428 ± 102 nM	CC(C)(C)c1nc(N2CCN(CCCCNC(=O)N3CCN(c4ccc(C(F)(F)F)cc4)CC3)CC2)cc(C(F)(F)F)n1 [Compound 28, N-(4-(4-(2-(tert-Butyl)-6-(trifluoromethyl)pyrimidin-4-yl)piperazin-1-yl)butyl)-4-(4-(trifluoromethyl)phenyl)piperazine-1-carboxamide]
112 ± 19.1 nM	14	1550 ± 349 nM	O=C(NCCCCN1CCN(c2ccnc3cc(C(F)(F)F)ccc23)CC1)N1CCN(c2ccccc2)CC1 [Compound 83, 4-Phenyl-N-(4-(4-(7-(trifluoromethyl)quinolin-4-yl)piperazin-1-yl)butyl)piperazine-1-carboxamide]
84.2 ± 20.3 nM	10	820 ± 178 nM	CC(C)(C)c1nc(N2CCN(CCCCNC(=O)N3CCN(Cc4cccc(C#N)c4)CC3)CC2)cc(C(F)(F)F)n1 [Compound 72, N-(4-(4-(2-(tert-Butyl)-6-(trifluoromethyl)pyrimidin-4-yl)piperazin-1-yl)butyl)-4-(3-cyanobenzyl)piperazine-1-carboxamide]
16.7 ± 4.4 nM	32	530 ± 45 nM	CC(C)(C)c1nc(N2CCN(CCCCNC(=O)N3CCN(Cc4ccccc4)CC3)CC2)cc(C(F)(F)F)n1 [Compound 36, 4-Benzyl-N-(4-(4-(2-(tert-butyl)-6-(trifluoromethyl)pyrimidin-4-yl)piperazin-1-yl)butyl)piperazine-1-carboxamide]
24.6 ± 4.9 nM	31	759 ± 97 nM	CC(C)(C)c1nc(N2CCN(CCCCNC(=O)N3CCN(c4cccc(Cl)c4Cl)CC3)CC2)cc(C(F)(F)F)n1 [Compound 18, N-(4-(4-(2-(tert-Butyl)-6-(trifluoromethyl)pyrimidin-4-yl)piperazin-1-yl)butyl)-4-(2,3-dichlorophenyl)piperazine-1-carboxamide]
8.6 ± 1.8 nM	54	463 ± 55.1 nM	CC(C)(C)c1nc(N2CCN(CCCCNC(=O)N3CCN(c4cnccn4)CC3)CC2)cc(C(F)(F)F)n1 [Compound 33, N-(4-(4-(2-(tert-Butyl)-6-(trifluoromethyl)pyrimidin-4-yl)piperazin-1-yl)butyl)-4-(pyrazin-2-yl)piperazine-1-carboxamide]
13 ± 0.7 nM	58	762 ± 159 nM	COc1cccc(N2CCN(C(=O)NCCCCN3CCN(c4cc(C(F)(F)F)nc(C(C)(C)C)n4)CC3)CC2)c1 [Compound 20, N-(4-(4-(2-(tert-Butyl)-6-(trifluoromethyl)pyrimidin-4-yl)piperazin-1-yl)butyl)-4-(3-methoxyphenyl)piperazine-1-carboxamide]
9.9 ± 1.7 nM	6	59.3 ± 7.5 nM	CC(C)(C)c1nc(N2CCN(CCCCNC(=O)N3CCC(N4CCCCC4)CC3)CC2)cc(C(F)(F)F)n1 [Compound 75, N-(4-(4-(2-(tert-Butyl)-6-(trifluoromethyl)pyrimidin-4-yl)piperazin-1-yl)butyl)-[1,4′-bipiperidine]-1′-carboxamide]
106 ± 5.5 nM	14	1520 ± 344 nM	CC(C)(C)c1nc(N2CCN(CCCCNC(=O)N3CCN(c4cc(C(F)(F)F)nc(C(C)(C)C)n4)CC3)CC2)cc(C(F)(F)F)n1 [Compound 62, 4-(2-(tert-Butyl)-6-(trifluoromethyl)pyrimidin-4-yl)-N-(4-(4-(2-(tert-butyl)-6-(trifluoromethyl)pyrimidin-4-yl)piperazin-1-yl)butyl)piperazine-1-carboxamide]
219 ± 23.8 nM	25	5480 ± 1150 nM	Cc1ccc2[nH]c3c(c2c1)CN(C(=O)NCCCCN1CCN(c2cc(C(C)(C)C)nc(C)n2)CC1)CC3 [Compound 94, N-(4-(4-(6-(tert-Butyl)-2-methylpyrimidin-4-yl)piperazin-1-yl)butyl)-8-methyl-3,4-dihydro-1H-pyrido[4,3-b]indole-2(5H)-carboxamide]
29.8 ± 3.8 nM	7	215 ± 54.1 nM	CC(C)(C)c1nc(N2CCN(CCCCNC(=O)N3CCN(C4CCCCC4)CC3)CC2)cc(C(F)(F)F)n1 [Compound 69, N-(4-(4-(2-(tert-Butyl)-6-(trifluoromethyl)pyrimidin-4-yl)piperazin-1-yl)butyl)-4-cyclohexylpiperazine-1-carboxamide]
95.7 ± 14.6 nM	27	2610 ± 79.1 nM	O=C(NCCCCN1CCN(c2ccc3ccccc3n2)CC1)N1CCN(c2ccccc2)CC1 [Compound 84, 4-Phenyl-N-(4-(4-(quinolin-2-yl)piperazin-1-yl)butyl)piperazine-1-carboxamide]
29.6 ± 3.2 nM	35	1050 ± 95.7 nM	CC(C)(C)c1nc(N2CCN(CCCCNC(=O)N3CCN(c4cccc(C(F)(F)F)c4)CC3)CC2)cc(C(F)(F)F)n1 [Compound 27, N-(4-(4-(2-(tert-Butyl)-6-(trifluoromethyl)pyrimidin-4-yl)piperazin-1-yl)butyl)-4-(3-(trifluoromethyl)phenyl)piperazine-1-carboxamide]
21.4 ± 3.4 nM	34	738 ± 88.8 nM	CC(C)(C)c1nc(N2CCN(CCCCNC(=O)N3CCN(c4ccccc4Cl)CC3)CC2)cc(C(F)(F)F)n1 [Compound 14, N-(4-(4-(2-(tert-Butyl)-6-(trifluoromethyl)pyrimidin-4-yl)piperazin-1-yl)butyl)-4-(2-chlorophenyl)piperazine-1-carboxamide]
1020 ± 201 nM	6	6400 ± 1100 nM	Cc1nc(N2CCN(CCCCNC(=O)N3CCc4[nH]c5ccc(C(F)(F)F)cc5c4C3)CC2)cc(C(C)(C)C)n1 [Compound 98, N-(4-(4-(6-(tert-Butyl)-2-methylpyrimidin-4-yl)piperazin-1-yl)butyl)-8-(trifluoromethyl)-3,4-dihydro-1H-pyrido[4,3-b]indole-2(5H)-carboxamide]
45.4 ± 11.3 nM	–	934 ± 222 nM	CC(C)(C)c1nc(N2CCN(CCCCNC(=O)c3cn4c(CO)cccc4n3)CC2)cc(C(F)(F)F)n1 [Compound 119, N-(4-(4-(2-(tert-Butyl)-6-(trifluoromethyl)pyrimidin-4-yl)piperazin-1-yl)butyl)-5-(hydroxymethyl)imidazo[1,2-a]pyridine-2-carboxamide]
29 ± 4.8 nM	15	448 ± 75.9 nM	CC(C)(C)c1cc(N2CCN(CCCCNC(=O)N3CCN(S(=O)(=O)c4ccccc4)CC3)CC2)nc(C(C)(C)C)n1 [Compound 78, N-(4-(4-(2,6-Di-tert-butylpyrimidin-4-yl)piperazin-1-yl)butyl)-4-(phenylsulfonyl)piperazine-1-carboxamide]
44.1 ± 8.1 nM	29	1290 ± 248 nM	CC(C)(C)c1nc(N2CCN(CCCCNC(=O)N3CCC(Oc4ccccc4)CC3)CC2)cc(C(F)(F)F)n1 [Compound 51, N-(4-(4-(2-(tert-Butyl)-6-(trifluoromethyl)pyrimidin-4-yl)piperazin-1-yl)butyl)-4-phenoxypiperidine-1-carboxamide]
74.9 ± 15 nM	>66	> 5000 nM	COc1ccc2[nH]c3c(c2c1)CN(C(=O)NCCCCN1CCN(c2cc(C(C)(C)C)nc(C)n2)CC1)CC3 [Compound 96, N-(4-(4-(6-(tert-Butyl)-2-methylpyrimidin-4-yl)piperazin-1-yl)butyl)-8-methoxy-3,4-dihydro-1H-pyrido[4,3-b]indole-2(5H)-carboxamide]
167 ± 8.5 nM	11	1800 ± 257 nM	CC(C)(C)c1nc(N2CCN(CCCCNC(=O)C3CCN(c4ccc(C(F)(F)F)cn4)CC3)CC2)cc(C(F)(F)F)n1 [Compound 110, N-(4-(4-(2-(tert-Butyl)-6-(trifluoromethyl)pyrimidin-4-yl)piperazin-1-yl)butyl)-1-(5-(trifluoromethyl)pyridin-2-yl)piperidine-4-carboxamide]
51.8 ± 11.4 nM	16	834 ± 133 nM	CC(C)(C)c1nc(N2CCN(CCCCNC(=O)N3CCC(O)(c4ccc(Cl)cc4)CC3)CC2)cc(C(F)(F)F)n1 [Compound 79, N-(4-(4-(2-(tert-Butyl)-6-(trifluoromethyl)pyrimidin-4-yl)piperazin-1-yl)butyl)-4-(4-chlorophenyl)-4-hydroxypiperidine-1-carboxamide]
161 nM	8	1260 ± 142 nM	O=C(NCCCCN1CCN(c2ccc3ccccc3n2)CC1)c1cn2cccnc2n1 [Compound 126, N-(4-(4-(Quinolin-2-yl)piperazin-1-yl)butyl)imidazo[1,2-a]pyrimidine-2-carboxamide]
46.6 ± 9.1 nM	12	570 ± 119 nM	CC(C)(C)c1nc(N2CCN(CCCCNC(=O)N3CCN(c4ccc(Cl)c(Cl)c4)CC3)CC2)cc(C(F)(F)F)n1 [Compound 60, N-(4-(4-(2-(tert-Butyl)-6-(trifluoromethyl)pyrimidin-4-yl)piperazin-1-yl)butyl)-4-(3,4-dichlorophenyl)piperazine-1-carboxamide]
16 nM	52	843 ± 95 nM	CC(C)(C)c1nc(N2CCN(CCCCNC(=O)N3CCC(C#N)(c4ccccc4)CC3)CC2)cc(C(F)(F)F)n1 [Compound 17, N-(4-(4-(2-(tert-Butyl)-6-(trifluoromethyl)pyrimidin-4-yl)piperazin-1-yl)butyl)-4-cyano-4-phenylpiperidine-1-carboxamide]
138 ± 28.8 nM	7	981 ± 73.9 nM	CC(C)(C)c1nc(N2CCN(CCCCNC(=O)N3CCN(S(=O)(=O)c4ccccc4)CC3)CC2)cc(C(F)(F)F)n1 [Compound 77, N-(4-(4-(2-(tert-Butyl)-6-(trifluoromethyl)pyrimidin-4-yl)piperazin-1-yl)butyl)-4-(phenylsulfonyl)piperazine-1-carboxamide]
